# In patent US3930838A, “S-benzyl-N,N-disec-butylthiocarbamate and its use as a rice field herbicide and a rice growth stimulant” (priority 1970, dated 1976):
# How the values were obtained:
# rice = test: Comparative selectivity test on rice in submerged culture, air-conditioned atmosphere (Example 7); assay type: in vivo; conditions: for Main root, average value per plant / Shoot, average value per plant / Sprouted plants: 24 days
# Procedure: Into a set of cylindrical pots having a 200 cm^2 internal surface, sieved rice field earth in a quantity of 1 kg. per pot was introduced. After leveling and wetting with 200 cc. of water, the earth surface of the pots was uniformly sprayed with hydroacetone solutions containing, respectively, 0, 0.2, 0.3, and 0.4% active product (a.p.). 4 Ml. of the solution were sprayed onto each pot, so that the amount of active product in a set of four pots was 0, 4, 6, and 8 kg./ha., respectively. Immediately after spraying, each pot was filled with water to a level of 7 cm. over the soil surface. Thereafter, the sowing was carried out at the rate of 15 pre-germinated rice seeds per pot. Three repetitions were performed for each treatment. The pots were kept in an air-conditioned atmosphere with a daily temperature variation between 10° and 25°C and a 14 hour per day light period. After 24 days, the percentage of sprouted plants and the length of the shoot were recorded.
# Rice plants = test: Open field test on rice, periodical checks of the plots (Example 10); assay type: in vivo, rice cv. RIBE; conditions: two months
# Procedure: In the province of Novara, Italy, a test was performed outdoors in clay soil. For each treatment, a 600 m^2 plot provided with independent water feed was prepared. After soil working and leveling, the treatment was effected on Apr. 23, 1970, using formulations in emulsifiable oils of M3432 and of molinate, sprayed by means of mechanical devices. Only the plot treated with molinate was harrowed just after treatment in order to incorporate the product and to avoid any losses of same due to volatilization. Immediately afterwards, the plots were flooded to a water level of 10-12 cm.
# Pre-germinated cv. RIBE rice was mechanically sowed broadcast on Apr. 25, 1970.
# Periodical checks were carried out on the four plots. […]
# Dactylis glomerata = test: Weeding activity in screening conditions (Example 12); assay type: in vivo; conditions: 25 days
# Text: (§1) Two sets of small square tanks having 11 cm. sides, filled with field earth admixed with 30% of sand, were sowed at a depth of 0.5-1 cm. with the following grass species: Echinocloa crus galli, Setaria italica, Alopecurus myosiuroides, Lolium italicum, Digitaria sanguinalis, Avena fatua, Agrostis segetum, and Dactylis glomerata. After sowing, the earth surface of the tanks was uniformly sprayed with 2.4 cc./tank of hydroacetone solutions containing, respectively, 0, 0.05, 0.10, 0.20 and 0.30% of M3432 and of molinate, respectively, in order to obtain doses thereof corresponding to 0, 1, 2, 4, and 6 kg./ha., respectively.
# (§2) Only one set of small tanks was covered with a 1 cm. layer of earth just after the treatment. All of the tanks were kept in an air-conditioned chamber identical with that described in Example 7, and were watered every day. 25 days after the treatment, the final results were examined, attributing to each treatment the following scale of values: […]
# Echinocloa crus galli = test: as above; assay type: in vivo; conditions: 25 days
# Text: as §1, §2
# Setaria italica = test: as above; assay type: in vivo; conditions: 25 days
# Text: as §1, §2
# Agrostis segetum = test: as above; assay type: in vivo; design: scale not given here; conditions: 25 days
# Text: as §1, §2
# Alopecurus myosiuroides = test: as above; assay type: in vivo; design: scale not given here; conditions: 25 days
# Text: as §1, §2
# Avena fatua = test: as above; assay type: in vivo; design: scale not given here; conditions: 25 days
# Text: as §1, §2
# Digitaria sanguinalis = test: as above; assay type: in vivo; design: scale not given here; conditions: 25 days
# Text: as §1, §2
# Lolium italicum = test: as above; assay type: in vivo; design: scale not given here; conditions: 25 days
# Text: as §1, §2
# [1] = Treated surface covered with 1 cm earth layer, 2 kg./ha.
# [2] = Treated surface covered with 1 cm earth layer, 4 kg./ha.
# [3] = Treated surface covered with 1 cm earth layer, 6 kg./ha.
compound,measurement,setting,value
"CCC(C)N(C(=O)SCc1ccccc1)C(C)CC (stereo not shown) [M3432, S-benzyl-N,N-disec.butylthiocarbamate]","Main root, average value per plant",rice; 4 kg./ha.,8.3 cm.
same,"Shoot, average value per plant",rice; 4 kg./ha.,17.8 cm.
same,Sprouted plants,rice; 4 kg./ha.,60.0%
same,"Main root, average value per plant",rice; 6 kg./ha.,10.4 cm.
same,"Shoot, average value per plant",rice; 6 kg./ha.,21.1 cm.
same,Sprouted plants,rice; 6 kg./ha.,53.3%
same,"Main root, average value per plant",rice; 8 kg./ha.,10.1 cm.
same,"Shoot, average value per plant",rice; 8 kg./ha.,23.9 cm.
same,Sprouted plants,rice; 8 kg./ha.,77.7%
same,Average height,Rice plants; 4 kg./ha.,about 60 cm.
same,Average height,Rice plants; 6 kg./ha.,about 60 cm.
same,Weeding activity,"Dactylis glomerata; Surface, 1 kg./ha.",3/4
same,Weeding activity,"Dactylis glomerata; Surface, 2 kg./ha.",4
same,Weeding activity,"Dactylis glomerata; Surface, 4 kg./ha.",4/3
same,Weeding activity,"Dactylis glomerata; Surface, 6 kg./ha.",4
same,Weeding activity,Dactylis glomerata; [1],4
same,Weeding activity,Dactylis glomerata; [2],4
same,Weeding activity,Dactylis glomerata; [3],4
same,Weeding activity,"Echinocloa crus galli; Surface, 1 kg./ha.",3
same,Weeding activity,"Echinocloa crus galli; Surface, 2 kg./ha.",3/4
same,Weeding activity,"Echinocloa crus galli; Surface, 4 kg./ha.",4/3
same,Weeding activity,"Echinocloa crus galli; Surface, 6 kg./ha.",4
same,Weeding activity,Echinocloa crus galli; [1],4/3
same,Weeding activity,Echinocloa crus galli; [2],4
same,Weeding activity,Echinocloa crus galli; [3],4
same,Weeding activity,"Setaria italica; Surface, 1 kg./ha.",3
same,Weeding activity,"Setaria italica; Surface, 2 kg./ha.",3
same,Weeding activity,"Setaria italica; Surface, 4 kg./ha.",4/3
same,Weeding activity,"Setaria italica; Surface, 6 kg./ha.",4/3
same,Weeding activity,Setaria italica; [1],3/4
same,Weeding activity,Setaria italica; [2],4/3
same,Weeding activity,Setaria italica; [3],4
same,Weeding activity,"Agrostis segetum; Surface, 1 kg./ha.",4
same,Weeding activity,"Agrostis segetum; Surface, 2 kg./ha.",4
same,Weeding activity,"Agrostis segetum; Surface, 6 kg./ha.",4
same,Weeding activity,Agrostis segetum; [1],4
same,Weeding activity,Agrostis segetum; [2],4
same,Weeding activity,Agrostis segetum; [3],4
same,Weeding activity,"Alopecurus myosiuroides; Surface, 1 kg./ha.",1/2
same,Weeding activity,"Alopecurus myosiuroides; Surface, 2 kg./ha.",2
same,Weeding activity,"Alopecurus myosiuroides; Surface, 4 kg./ha.",3
same,Weeding activity,"Alopecurus myosiuroides; Surface, 6 kg./ha.",4
same,Weeding activity,Alopecurus myosiuroides; [1],4
same,Weeding activity,Alopecurus myosiuroides; [2],4
same,Weeding activity,Alopecurus myosiuroides; [3],4
same,Weeding activity,"Avena fatua; Surface, 1 kg./ha.",2/3
same,Weeding activity,"Avena fatua; Surface, 2 kg./ha.",3
same,Weeding activity,"Avena fatua; Surface, 4 kg./ha.",3
same,Weeding activity,"Avena fatua; Surface, 6 kg./ha.",3
same,Weeding activity,Avena fatua; [1],4
same,Weeding activity,Avena fatua; [2],4
same,Weeding activity,Avena fatua; [3],4
same,Weeding activity,"Digitaria sanguinalis; Surface, 1 kg./ha.",3
same,Weeding activity,"Digitaria sanguinalis; Surface, 2 kg./ha.",4
same,Weeding activity,"Digitaria sanguinalis; Surface, 4 kg./ha.",4
same,Weeding activity,"Digitaria sanguinalis; Surface, 6 kg./ha.",4
same,Weeding activity,Digitaria sanguinalis; [1],4
same,Weeding activity,Digitaria sanguinalis; [2],4
same,Weeding activity,Digitaria sanguinalis; [3],4
same,Weeding activity,"Lolium italicum; Surface, 1 kg./ha.",4
same,Weeding activity,"Lolium italicum; Surface, 2 kg./ha.",4
same,Weeding activity,"Lolium italicum; Surface, 4 kg./ha.",4
same,Weeding activity,"Lolium italicum; Surface, 6 kg./ha.",4
same,Weeding activity,Lolium italicum; [1],4
same,Weeding activity,Lolium italicum; [2],4
same,Weeding activity,Lolium italicum; [3],4
"CCSC(=O)N1CCCCCC1 [Molinate, ethyl-1-hexamethylene-imino-carbothiolate, reference compound]","Main root, average value per plant",rice; 4 kg./ha.,7.4 cm.
same,"Shoot, average value per plant",rice; 4 kg./ha.,15.3 cm.
same,Sprouted plants,rice; 4 kg./ha.,42.3%
same,"Main root, average value per plant",rice; 6 kg./ha.,3.9 cm.
same,"Shoot, average value per plant",rice; 6 kg./ha.,8.2 cm.
same,Sprouted plants,rice; 6 kg./ha.,20.0%
same,"Main root, average value per plant",rice; 8 kg./ha.,4.6 cm.
same,"Shoot, average value per plant",rice; 8 kg./ha.,6.6 cm.
same,Sprouted plants,rice; 8 kg./ha.,11.0%
same,Margin of safety on rice,rice; rice growth unfavorably affected even at 6 kg./ha.,narrow margin of safety
same,Average height,Rice plants; 4 kg./ha.,35-45 cm.
same,Rice plants appearance,Rice plants; 4 kg./ha.,normal
same,Stand (number of tillers per unit of area),Rice plants; 4 kg./ha.,normal
same,Weeding activity,"Dactylis glomerata; Surface, 2 kg./ha.",1/2
same,Weeding activity,"Dactylis glomerata; Surface, 4 kg./ha.",1/2
same,Weeding activity,"Dactylis glomerata; Surface, 6 kg./ha.",3
same,Weeding activity,Dactylis glomerata; [1],3
same,Weeding activity,Dactylis glomerata; [2],4/3
same,Weeding activity,Dactylis glomerata; [3],4/3
same,Weeding activity,"Echinocloa crus galli; Surface, 2 kg./ha.",2
same,Weeding activity,"Echinocloa crus galli; Surface, 4 kg./ha.",1/2
same,Weeding activity,"Echinocloa crus galli; Surface, 6 kg./ha.",1/2
same,Weeding activity,Echinocloa crus galli; [1],3
same,Weeding activity,Echinocloa crus galli; [2],3
same,Weeding activity,Echinocloa crus galli; [3],3/4
same,Weeding activity,"Setaria italica; Surface, 2 kg./ha.",0/1
same,Weeding activity,"Setaria italica; Surface, 4 kg./ha.",0/1
same,Weeding activity,"Setaria italica; Surface, 6 kg./ha.",0/1
same,Weeding activity,Setaria italica; [1],3
same,Weeding activity,Setaria italica; [2],3
same,Weeding activity,Setaria italica; [3],3
same,Weeding activity,"Agrostis segetum; Surface, 2 kg./ha.",2
same,Weeding activity,"Agrostis segetum; Surface, 4 kg./ha.",4
same,Weeding activity,"Agrostis segetum; Surface, 6 kg./ha.",4
same,Weeding activity,Agrostis segetum; [1],4
same,Weeding activity,Agrostis segetum; [2],4
same,Weeding activity,Agrostis segetum; [3],4
same,Weeding activity,"Alopecurus myosiuroides; Surface, 2 kg./ha.",1/2
same,Weeding activity,"Alopecurus myosiuroides; Surface, 4 kg./ha.",2
same,Weeding activity,"Alopecurus myosiuroides; Surface, 6 kg./ha.",3
same,Weeding activity,Alopecurus myosiuroides; [1],3
same,Weeding activity,Alopecurus myosiuroides; [2],4/3
same,Weeding activity,Alopecurus myosiuroides; [3],4/3
same,Weeding activity,"Avena fatua; Surface, 2 kg./ha.",1
same,Weeding activity,"Avena fatua; Surface, 4 kg./ha.",3/2
same,Weeding activity,"Avena fatua; Surface, 6 kg./ha.",4/3
same,Weeding activity,Avena fatua; [1],4
same,Weeding activity,Avena fatua; [2],4
same,Weeding activity,Avena fatua; [3],4
same,Weeding activity,"Digitaria sanguinalis; Surface, 2 kg./ha.",0
same,Weeding activity,"Digitaria sanguinalis; Surface, 4 kg./ha.",3/4
same,Weeding activity,"Digitaria sanguinalis; Surface, 6 kg./ha.",4
same,Weeding activity,Digitaria sanguinalis; [1],4
same,Weeding activity,Digitaria sanguinalis; [2],4
same,Weeding activity,Digitaria sanguinalis; [3],4
same,Weeding activity,"Lolium italicum; Surface, 2 kg./ha.",0/1
same,Weeding activity,"Lolium italicum; Surface, 4 kg./ha.",2
same,Weeding activity,"Lolium italicum; Surface, 6 kg./ha.",2/3
same,Weeding activity,Lolium italicum; [1],3/2
same,Weeding activity,Lolium italicum; [2],3/4
same,Weeding activity,Lolium italicum; [3],4
